Laboratory results: ChEMBL document CHEMBL2073940, “Vinblastine and sulfinpyrazone export by the multidrug resistance protein MRP2 is associated with glutathione export” (Br J Cancer, 2000)

Key:
Format in all cases: functional, cell-based
Conditions in all cases: dog, mdck-ii
[1] = target: T1, Multidrug resistance-associated protein 1 (Homo sapiens, UniProt P33527); assay: TP_TRANSPORTER: inhibition of Glutathione efflux (Benzbromarone: 25 uM) in MRP1-expressing MDCKII cells
[2] = target: T1, Multidrug resistance-associated protein 1; assay: TP_TRANSPORTER: inhibition of Glutathione efflux (Sulfinpyrazone: 3200. uM) in MRP1-expressing MDCKII cells
[3] = target: ATP-binding cassette sub-family C member 2 (Homo sapiens, UniProt Q92887); assay: TP_TRANSPORTER: transepithelial transport (basal to apical) in MRP2-expressing MDCKII cells
Sequence of ATP-binding cassette sub-family C member 2 (Q92887 whole entry): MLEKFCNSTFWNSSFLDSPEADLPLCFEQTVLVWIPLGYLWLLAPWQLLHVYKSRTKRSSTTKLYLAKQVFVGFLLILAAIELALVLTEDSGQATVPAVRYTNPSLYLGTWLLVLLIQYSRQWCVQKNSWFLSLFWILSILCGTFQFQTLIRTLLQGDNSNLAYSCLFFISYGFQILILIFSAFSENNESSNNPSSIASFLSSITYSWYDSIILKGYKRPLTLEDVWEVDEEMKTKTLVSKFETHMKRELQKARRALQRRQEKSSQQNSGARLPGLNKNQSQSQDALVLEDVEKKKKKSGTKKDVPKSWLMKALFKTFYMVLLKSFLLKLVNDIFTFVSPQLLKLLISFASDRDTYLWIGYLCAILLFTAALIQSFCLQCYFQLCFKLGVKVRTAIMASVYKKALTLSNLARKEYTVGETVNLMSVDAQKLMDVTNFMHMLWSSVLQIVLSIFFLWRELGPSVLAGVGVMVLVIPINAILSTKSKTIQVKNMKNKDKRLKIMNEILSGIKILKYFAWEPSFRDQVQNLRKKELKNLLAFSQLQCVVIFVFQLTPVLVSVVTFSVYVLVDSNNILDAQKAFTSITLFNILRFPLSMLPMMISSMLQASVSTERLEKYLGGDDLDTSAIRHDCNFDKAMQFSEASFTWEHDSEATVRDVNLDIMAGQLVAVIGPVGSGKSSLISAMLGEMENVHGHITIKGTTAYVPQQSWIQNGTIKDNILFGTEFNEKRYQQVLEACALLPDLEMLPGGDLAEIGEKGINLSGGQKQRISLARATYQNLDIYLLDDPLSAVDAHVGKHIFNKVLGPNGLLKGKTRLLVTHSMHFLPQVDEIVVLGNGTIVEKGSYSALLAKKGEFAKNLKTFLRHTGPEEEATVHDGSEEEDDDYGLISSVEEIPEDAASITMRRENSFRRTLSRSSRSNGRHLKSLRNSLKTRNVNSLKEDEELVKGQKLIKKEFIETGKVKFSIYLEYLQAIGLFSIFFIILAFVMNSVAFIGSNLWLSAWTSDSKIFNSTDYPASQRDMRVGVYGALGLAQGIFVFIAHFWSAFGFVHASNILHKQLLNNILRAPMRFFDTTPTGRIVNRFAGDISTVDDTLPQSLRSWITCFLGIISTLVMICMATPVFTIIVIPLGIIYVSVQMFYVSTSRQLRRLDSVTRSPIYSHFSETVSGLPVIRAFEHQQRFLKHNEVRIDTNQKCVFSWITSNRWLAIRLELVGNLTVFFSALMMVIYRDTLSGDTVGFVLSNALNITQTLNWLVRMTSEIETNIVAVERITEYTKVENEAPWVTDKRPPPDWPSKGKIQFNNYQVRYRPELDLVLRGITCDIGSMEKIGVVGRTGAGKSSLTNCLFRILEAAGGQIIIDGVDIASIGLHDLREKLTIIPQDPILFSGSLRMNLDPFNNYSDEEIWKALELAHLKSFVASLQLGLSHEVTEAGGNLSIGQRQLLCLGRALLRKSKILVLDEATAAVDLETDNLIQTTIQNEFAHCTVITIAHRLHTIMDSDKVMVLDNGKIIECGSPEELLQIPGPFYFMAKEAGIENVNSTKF

[4] = target: T1, Multidrug resistance-associated protein 1; assay: TP_TRANSPORTER: inhibition of Glutathione efflux (Indomethacin: 400 uM) in MRP1-expressing MDCKII cells

T1 sequence (P33527 whole entry): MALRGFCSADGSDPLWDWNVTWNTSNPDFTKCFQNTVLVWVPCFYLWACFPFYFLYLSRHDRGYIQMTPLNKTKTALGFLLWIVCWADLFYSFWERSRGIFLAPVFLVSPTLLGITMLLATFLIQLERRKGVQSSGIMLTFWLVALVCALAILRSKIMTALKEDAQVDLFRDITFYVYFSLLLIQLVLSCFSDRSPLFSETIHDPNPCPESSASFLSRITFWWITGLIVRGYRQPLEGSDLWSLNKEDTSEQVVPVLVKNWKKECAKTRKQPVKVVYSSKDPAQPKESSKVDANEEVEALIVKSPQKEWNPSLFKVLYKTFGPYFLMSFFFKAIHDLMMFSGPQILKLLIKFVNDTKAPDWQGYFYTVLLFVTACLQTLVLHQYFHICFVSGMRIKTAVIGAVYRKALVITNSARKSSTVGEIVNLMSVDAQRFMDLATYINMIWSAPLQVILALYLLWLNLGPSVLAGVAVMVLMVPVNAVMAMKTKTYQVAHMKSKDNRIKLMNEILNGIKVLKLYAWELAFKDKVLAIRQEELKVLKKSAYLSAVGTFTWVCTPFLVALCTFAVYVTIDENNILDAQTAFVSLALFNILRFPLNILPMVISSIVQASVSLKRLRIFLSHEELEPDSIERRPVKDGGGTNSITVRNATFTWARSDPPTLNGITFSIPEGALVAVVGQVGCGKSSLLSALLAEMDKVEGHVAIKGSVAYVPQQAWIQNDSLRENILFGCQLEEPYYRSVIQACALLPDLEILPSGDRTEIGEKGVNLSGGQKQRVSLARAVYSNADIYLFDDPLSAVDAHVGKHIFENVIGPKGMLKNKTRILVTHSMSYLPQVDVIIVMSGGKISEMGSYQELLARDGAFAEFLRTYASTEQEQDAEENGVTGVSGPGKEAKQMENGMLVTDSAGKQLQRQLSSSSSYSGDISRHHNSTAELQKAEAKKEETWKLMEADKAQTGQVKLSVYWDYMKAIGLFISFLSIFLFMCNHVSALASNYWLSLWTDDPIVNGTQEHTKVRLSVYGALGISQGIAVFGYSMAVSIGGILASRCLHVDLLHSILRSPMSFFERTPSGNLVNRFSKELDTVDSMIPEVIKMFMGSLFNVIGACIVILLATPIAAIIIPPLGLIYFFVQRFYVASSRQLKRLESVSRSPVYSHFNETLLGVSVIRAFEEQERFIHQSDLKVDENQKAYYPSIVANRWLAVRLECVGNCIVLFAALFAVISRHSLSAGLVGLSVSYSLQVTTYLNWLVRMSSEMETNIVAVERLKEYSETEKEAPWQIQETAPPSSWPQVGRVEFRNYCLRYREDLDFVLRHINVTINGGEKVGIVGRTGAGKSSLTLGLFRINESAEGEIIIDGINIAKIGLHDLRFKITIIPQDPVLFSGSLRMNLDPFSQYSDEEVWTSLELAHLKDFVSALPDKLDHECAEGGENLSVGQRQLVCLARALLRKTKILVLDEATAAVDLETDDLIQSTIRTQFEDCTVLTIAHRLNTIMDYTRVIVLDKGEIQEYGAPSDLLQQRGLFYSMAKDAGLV

With CCc1oc2ccccc2c1C(=O)c1cc(Br)c(O)c(Br)c1 [BENZBROMARONE] the Activity [1] was “inhibitor [+]”.

With O=C1C(CC[S+]([O-])c2ccccc2)C(=O)N(c2ccccc2)N1c1ccccc1 (centres undefined) [SULFINPYRAZONE] the Activity [2] was “inhibitor [+]” and the Activity [3] was “substrate [+]”.

In the case of COc1ccc2c(c1)c(CC(=O)O)c(C)n2C(=O)c1ccc(Cl)cc1 [INDOMETHACIN], the Activity [4] is reported as “inhibitor [+]”.
